{
  "source": "patent US6455540B1",
  "about": "“Methods of use of quinolone compounds against anaerobic pathogenic bacteria” (priority 1999, dated 2002)",
  "key": {"Gram-positive anaerobes": {"system": "Gram-positive anaerobes", "assay": "Agar dilution activity against Gram-positive anaerobes", "type": "cell-based", "details": "for activity compared with trovafloxacin: Gram-positive strains"}, "B. distasonis": {"system": "B. distasonis", "details": "Goldstein, et al.; cited from earlier work"}, "[1]": {"system": "certain Prevotella strains", "details": "Goldstein, et al.; cited from earlier work"}, "Clostridium ramosum": {"system": "Clostridium ramosum", "details": "prior study (Goldstein, et al.), 14 isolates; cited from earlier work"}, "peptostreptococci": {"system": "peptostreptococci", "details": "cited from earlier work"}, "Anaerobiospirillum spp.": {"system": "Anaerobiospirillum spp.", "assay": "Agar dilution MIC", "type": "cell-based"}, "clostridial isolates": {"system": "clostridial isolates", "details": "cited from earlier work"}, "B. ovatus": {"system": "B. ovatus", "details": "Goldstein, et al.; cited from earlier work"}, "[2]": {"system": "Porphyromonas spp. [P. asaccharolytica, P. canoris, P. gingivalis, P. macaccae]", "assay": "Agar dilution MIC, Porphyromonas spp. as a group", "type": "cell-based", "details": "read-out: concentration to which all strains were susceptible (MIC)"}, "Bacteroides fragilis": {"system": "Bacteroides fragilis", "details": "Goldstein, et al.; cited from earlier work"}, "F. ulcerans": {"system": "F. ulcerans", "assay": "Agar dilution MIC", "type": "cell-based", "details": "Fusobacterium ulcerans"}, "[3]": {"details": "Marco, et al., 18 strains of peptostreptococci"}},
  "note": "Read-outs that look alike come from different tables or passages of the source.",
  "data": [
    {"smiles": "CO/N=C1\\CN(c2nc3c(cc2F)c(=O)c(C(=O)O)cn3C2CC2)CC1CN", "note": "(racemic) [Gemifloxacin, (R,S)-7-(3-aminomethyl-4-methoxyiminopyrrolidin-1-yl)-1-cyclopropyl-6-fluoro-4-oxo-1,4-dihydro-1,8-naphthyridine-3-carboxylic acid]", "values": [
      {"measurement": "activity", "setting": "Gram-positive anaerobes", "value": "good activity"},
      {"measurement": "activity compared with trovafloxacin", "setting": "Gram-positive anaerobes", "value": "generally more active than trovafloxacin against Gram-positive strains by one to two dilutions"},
      {"measurement": "activity compared with trovafloxacin", "setting": "Gram-positive anaerobes; listed as gemifloxacin", "value": "compared favorably with trovafloxacin"},
      {"measurement": "activity", "setting": "B. distasonis", "value": "only limited activity"},
      {"measurement": "activity", "setting": "[1]", "value": "showed activity"},
      {"measurement": "MIC90", "setting": "Clostridium ramosum", "value": 8, "unit": "µg/mL"},
      {"measurement": "MIC90", "setting": "peptostreptococci; Cormicon and Jones, 10 strains of peptostreptococci", "value": 2, "unit": "µg/mL"},
      {"measurement": "MIC90", "setting": "peptostreptococci; [3]", "value": 2, "unit": "µg/mL"},
      {"measurement": "MIC range", "setting": "peptostreptococci; [3]", "value": "0.25 to 8", "unit": "µg/mL"},
      {"measurement": "MIC90", "setting": "Anaerobiospirillum spp.", "value": "≤ 2", "unit": "µg/mL"},
      {"measurement": "maximum MIC", "setting": "clostridial isolates; Cormicon and Jones, ten clostridial isolates", "value": 2, "unit": "µg/mL"},
      {"measurement": "concentration to which all isolates were susceptible (MIC)", "setting": "clostridial isolates; Marco, et al., 19 unspecieted clostridial isolates", "value": "≤ 2", "unit": "µg/mL"},
      {"measurement": "activity", "setting": "B. ovatus", "value": "only limited activity"},
      {"measurement": "MIC", "setting": "[2]", "value": "≤ 0.25", "unit": "µg/mL"},
      {"measurement": "activity", "setting": "Bacteroides fragilis", "value": "showed activity"},
      {"measurement": "MIC90", "setting": "F. ulcerans", "value": "≥ 4", "unit": "µg/mL"}
    ]}
  ]
}
